Among the data in US10377743B2, “Inhibitors of RAS and methods of use thereof” (Araxes Pharma LLC, priority 2016, dated 2019) are Binding % values, retold here.

This experiment deals with T1, KRAS G12C 1-169, his-tagged protein, GDP-loaded (Homo sapiens, UniProt P01116, G12C).
T1 construct: KRAS G12C 1-169, his-tagged protein, GDP-loaded
Kind of experiment: Biochemical assay: covalent binding (modification %) to KRAS G12C by mass spectrometry. The settings on record: 2 hour incubation period.

Where [1] appears, read: 8 μM compound (compounds 21-92).
[2] abbreviates: 10 μM compound (compounds 1-20).

Regarding `C=CC(=O)N1CC(N2Cc3ccc(-c4cccc5[nH]cnc45)cc3C2=O)C1` [Compound 46, 2-(1-acryloylazetidin-3-yl)-6-(1H-benzo[d]imidazol-4-yl)isoindolin-1-one], the Binding % result under setting [1] is recorded as “+ (+ indicates binding activity up to 10%)”.

As for `C=CC(=O)N1CC(N2Cc3ccc(-c4cc(O)ccc4Cl)cc3C2=O)C1` [Compound 10, 2-(1-acryloylazetidin-3-yl)-6-(2-chloro-5-hydroxyphenyl)isoindolin-1-one], the Binding % result under setting [2] was “+++ (+++ indicates binding activity greater than 50%)”.

For `C=CC(=O)N1CC(N2Cc3cc(C)c(-c4cc(O)cc5ccccc45)cc3C2=O)C1` [Compound 30, 2-(1-acryloylazetidin-3-yl)-6-(3-hydroxynaphthalen-1-yl)-5-methylisoindolin-1-one], under setting [1], the Binding % result was “+++ (+++ indicates binding activity greater than 50%)”.

Turning to `C=CC(=O)N1CC(N2Cc3ccc(-c4ccc(C#N)cc4)cc3C2=O)C1` [Compound 80, 4-(2-(1-acryloylazetidin-3-yl)-3-oxoisoindolin-5-yl)benzonitrile], the Binding % result under setting [1] is “+ (+ indicates binding activity up to 10%)”.

Regarding `C=CC(=O)N1CC(N2Cc3ccc(-c4ccccc4C#N)cc3C2=O)C1` [Compound 61, 2-(2-(1-acryloylazetidin-3-yl)-3-oxoisoindolin-5-yl)benzonitrile], the Binding % entry under setting [1] is given as “+ (+ indicates binding activity up to 10%)”.

In the case of `C=CC(=O)NCCN1Cc2ccc(-c3cc(O)cc4ccccc34)cc2C1=O` [Compound 18, N-(2-(6-(3-hydroxynaphthalen-1-yl)-1-oxoisoindolin-2-yl)ethyl)acrylamide], the Binding % entry under setting [2] is “+ (+ indicates binding activity up to 10%)”.

For the compound `C=CC(=O)N1CC(N2Cc3c(F)cc(-c4cc(O)ccc4Cl)cc3C2=O)C1` [Compound 26, 2-(1-acryloylazetidin-3-yl)-6-(2-chloro-5-hydroxyphenyl)-4-fluoroisoindolin-1-one], under setting [1], the Binding % result was “++ (++ indicates binding activity from 10 to 50%)”.

As for `C=CC(=O)N1CC(N2Cc3c(Cl)cc(-c4cc(O)cc5ccccc45)cc3C2=O)C1` [Compound 12, 2-(1-acryloylazetidin-3-yl)-4-chloro-6-(3-hydroxynaphthalen-1-yl)isoindolin-1-one], the Binding % result under setting [2] is given as “+++ (+++ indicates binding activity greater than 50%)”.

For `C=CC(=O)N1CC(N2C(=O)c3ccc(-c4c(C)ccc5[nH]ncc45)cc3C2=O)C1` [Compound 32, 2-(1-acryloylazetidin-3-yl)-5-(5-methyl-1H-indazol-4-yl)isoindoline-1,3-dione], the Binding % entry under setting [1] is given as “+ (+ indicates binding activity up to 10%)”.

For the compound `C=CC(=O)N1CC(N2Cc3ccc(-c4c(O)ccc5ccccc45)cc3C2=O)C1` [Compound 73, 2-(1-acryloylazetidin-3-yl)-6-(2-hydroxynaphthalen-1-yl)isoindolin-1-one], the Binding % entry under setting [1] is “++ (++ indicates binding activity from 10 to 50%)”.

As to `C=CC(=O)N1CCC(N2Cc3ccc(-c4cc(O)cc5ccccc45)cc3C2=O)C1` (stereo not drawn) [Compound 9, 2-(1-acryloylpyrrolidin-3-yl)-6-(3-hydroxynaphthalen-1-yl)isoindolin-1-one], the Binding % result under setting [2] was “++ (++ indicates binding activity from 10 to 50%)”.

Consider `C=CC(=O)N1CC(N2Cc3ccc(-c4c[nH]c5ccccc45)cc3C2=O)C1` [Compound 16, 2-(1-acryloylazetidin-3-yl)-6-(1H-indol-3-yl)isoindolin-1-one], for which the Binding % entry under setting [2] is “++ (++ indicates binding activity from 10 to 50%)”.

In the case of `C=CC(=O)N1CC(N2Cc3ccc(NC4CCN(C(C)=O)C4)cc3C2=O)C1` (stereo not drawn) [Compound 75, 6-((1-acetylpyrrolidin-3-yl)amino)-2-(1-acryloylazetidin-3-yl)isoindolin-1-one], the Binding % result under setting [1] was “+ (+ indicates binding activity up to 10%)”.

Consider `C=CC(=O)N1CC(N2Cc3ccc(N4CCCC(N(C)C)C4)cc3C2=O)C1` (stereo not drawn) [Compound 78, 2-(1-acryloylazetidin-3-yl)-6-(3-(dimethylamino)piperidin-1-yl)isoindolin-1-one], for which the Binding % entry under setting [1] is “+ (+ indicates binding activity up to 10%)”.

`C=CC(=O)N1CC(N2Cc3c(C#N)cc(-c4cc(O)cc5ccccc45)cc3C2=O)C1` [Compound 24, 2-(1-acryloylazetidin-3-yl)-6-(3-hydroxynaphthalen-1-yl)-1-oxoisoindoline-4-carbonitrile]: under setting [1], the Binding % entry is “+++ (+++ indicates binding activity greater than 50%)”.

On to `C=CC(=O)N1CC(N2Cc3c(C(N)=O)cc(-c4c(C)ccc5[nH]ncc45)cc3C2=O)C1` [Compound 77, 2-(1-acryloylazetidin-3-yl)-6-(5-methyl-1H-indazol-4-yl)-1-oxoisoindoline-4-carboxamide], for which the Binding % result under setting [1] is “+ (+ indicates binding activity up to 10%)”.

For the compound `C=CC(=O)N1CC(N2Cc3ccc(-c4cccc(C#N)c4)cc3C2=O)C1` [Compound 55, 3-(2-(1-acryloylazetidin-3-yl)-3-oxoisoindolin-5-yl)benzonitrile], the Binding % result under setting [1] was “+ (+ indicates binding activity up to 10%)”.

Regarding `C=CC(=O)N1CC(N2Cc3ccc(-c4cccc5[nH]ncc45)cc3C2=O)C1` [Compound 48, 2-(1-acryloylazetidin-3-yl)-6-(1H-indazol-4-yl)isoindolin-1-one], under setting [1], the Binding % result is listed as “+ (+ indicates binding activity up to 10%)”.
